Source: the supplement of paper PMC10307832

Legend:
Assay in all cases: relative viability (nuclei count vs DMSO), 5 days (fraction); higher = more cells survive
Tozasertib + Bortezomib = compound: Cc1cc(Nc2cc(N3CCN(C)CC3)nc(Sc3ccc(NC(=O)C4CC4)cc3)n2)n[nH]1 [Tozasertib] + CC(C)C[C@H](NC(=O)[C@H](Cc1ccccc1)NC(=O)c1cnccn1)B(O)O [Bortezomib] (partner 0.002 µM)
In short: (§1)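 Lung cancer cell lines were pin-tool dosed in 1536-well plates on the day after seeding, with either a lone drug or a fixed anchor-drug dose plus five library-drug doses (not always all listed) in √10 steps. Nuclei were counted on 4× images after 5 days. Relative viability is the ratio of treated-well to vehicle-well nuclei counts, with each value a median of duplicate plates.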

Tozasertib + Palbociclib = compound: Cc1cc(Nc2cc(N3CCN(C)CC3)nc(Sc3ccc(NC(=O)C4CC4)cc3)n2)n[nH]1 [Tozasertib] + CC(=O)c1c(C)c2cnc(Nc3ccc(N4CCNCC4)cn3)nc2n(C2CCCC2)c1=O [Palbociclib] (partner 0.5 µM)
In short: as §1

Tozasertib + Pictilisib = compound: Cc1cc(Nc2cc(N3CCN(C)CC3)nc(Sc3ccc(NC(=O)C4CC4)cc3)n2)n[nH]1 [Tozasertib] + CS(=O)(=O)N1CCN(Cc2cc3nc(-c4cccc5[nH]ncc45)nc(N4CCOCC4)c3s2)CC1 [Pictilisib] (partner 1 µM)
In short: as §1

Tozasertib + Foretinib = compound: Cc1cc(Nc2cc(N3CCN(C)CC3)nc(Sc3ccc(NC(=O)C4CC4)cc3)n2)n[nH]1 [Tozasertib] + COc1cc2c(Oc3ccc(NC(=O)C4(C(=O)Nc5ccc(F)cc5)CC4)cc3F)ccnc2cc1OCCCN1CCOCC1 [Foretinib] (partner 0.25 µM)
In short: as §1

Tozasertib + Phenformin = compound: Cc1cc(Nc2cc(N3CCN(C)CC3)nc(Sc3ccc(NC(=O)C4CC4)cc3)n2)n[nH]1 [Tozasertib] + N=C(N)NC(=N)NCCc1ccccc1 [Phenformin] (partner 250 µM)
In short: as §1

| Cell Line | relative viability (Tozasertib + Bortezomib; first compound 0.004 µM) | relative viability (Tozasertib + Bortezomib; first compound 0.04 µM) | relative viability (Tozasertib + Bortezomib; first compound 0.1265 µM) | relative viability (Tozasertib + Palbociclib; first compound 0.004 µM) | relative viability (Tozasertib + Palbociclib; first compound 0.01265 µM) | relative viability (Tozasertib + Palbociclib; first compound 0.04 µM) | relative viability (Tozasertib + Palbociclib; first compound 0.1265 µM) | relative viability (Tozasertib + Pictilisib; first compound 0.004 µM) | relative viability (Tozasertib + Pictilisib; first compound 0.04 µM) | relative viability (Tozasertib + Pictilisib; first compound 0.1265 µM) | relative viability (Tozasertib + Foretinib; first compound 0.004 µM) | relative viability (Tozasertib + Foretinib; first compound 0.01265 µM) | relative viability (Tozasertib + Foretinib; first compound 0.04 µM) | relative viability (Tozasertib + Phenformin; first compound 0.004 µM) | relative viability (Tozasertib + Phenformin; first compound 0.01265 µM) | relative viability (Tozasertib + Phenformin; first compound 0.04 µM) | relative viability (Tozasertib + Phenformin; first compound 0.1265 µM) | relative viability (Tozasertib + Bortezomib; first compound 0.01265 µM) | relative viability (Tozasertib + Pictilisib; first compound 0.01265 µM) | relative viability (Tozasertib + Foretinib; first compound 0.1265 µM) |
| --- | --- | --- | --- | --- | --- | --- | --- | --- | --- | --- | --- | --- | --- | --- | --- | --- | --- | --- | --- | --- |
| NCI-H647 | 1.17 | 1.16 | 0.447 | 0.457 | 0.398 | 0.425 | 0.299 | 0.442 | 0.476 | 0.171 | 1.24 | 1.28 | 1.34 | 0.687 | 0.526 | 0.602 | 0.177 |  |  |  |
| LOU-NH91 | 0.423 | 0.485 | 0.408 | 0.526 | 0.536 | 0.512 | 0.529 | 0.541 | 0.513 | 0.48 |  | 0.923 | 1.02 |  | 0.672 | 0.797 | 0.559 | 0.51 | 0.526 | 0.918 |
| NCI-H2009 | 1.12 | 1.08 | 0.811 | 0.254 | 0.201 | 0.247 | 0.164 | 0.851 |  | 0.552 | 1.21 | 1.19 | 1.33 | 0.5 | 0.455 | 0.476 | 0.477 | 0.938 | 0.79 | 0.994 |
| LC-2-ad | 0.949 | 1.04 | 0.427 | 0.503 | 0.529 | 0.442 | 0.477 | 0.505 | 0.427 | 0.127 | 0.812 |  | 1.04 | 0.618 | 0.548 | 0.514 | 0.299 | 0.978 | 0.516 | 0.609 |
| ABC-1 | 0.278 | 0.3 | 0.231 | 0.722 | 0.769 | 0.44 | 0.533 | 0.782 | 0.625 | 0.291 | 0.988 | 1.27 | 0.838 | 0.218 | 0.202 | 0.261 | 0.172 | 0.282 |  | 0.381 |
| NCI-H1975 | 0.319 |  | 0.338 | 0.59 | 0.598 | 0.623 | 0.622 | 0.323 | 0.295 | 0.238 | 1 | 1.03 | 1.03 | 0.444 | 0.432 | 0.428 | 0.366 | 0.408 | 0.278 | 0.844 |
| NCI-H2347 | 1.18 | 1 | 0.658 | 0.384 | 0.457 | 0.472 | 0.413 | 0.723 | 0.648 | 0.389 | 1.17 | 0.908 | 0.842 | 0.45 |  | 0.433 | 0.377 | 0.961 | 0.763 | 0.87 |
| NCI-H838 | 0.757 | 1.32 | 0.281 | 0.238 | 0.213 | 0.25 | 0.171 | 0.453 | 0.427 | 0.202 | 0.977 | 0.922 | 1.05 | 0.702 | 0.514 | 0.606 | 0.177 | 0.801 | 0.425 | 0.921 |
